Data taken from US7371529B2, “Methods and compositions for modulating gluconeogenesis using PGC-1” (Dana-Farber Cancer Institute, Inc., priority 2001, dated 2008).

B1: constitutively active FKHR: FKHR with three phosphorylatable amino acids changed to alanine (protein, UniProt Q12778 1-655, looked up, variant T24A S256A S319A)
Forkhead box protein O1: MAEAPQVVEIDPDFEPLPRPRSCAWPLPRPEFSQSNSATSSPAPSGSAAANPDAAAGLPSASAAAVSADFMSNLSLLEESEDFPQAPGSVAAAVAAAAAAAATGGLCGDFQGPEAGCLHPAPPQPPPPGPLSQHPPVPPAAAGPLAGQPRKSSSSRRNAWGNLSYADLITKAIESSAEKRLTLSQIYEWMVKSVPYFKDKGDSNSSAGWKNSIRHNLSLHSKFIRVQNEGTGKSSWWMLNPEGGKSGKSPRRRAAAMDNNSKFAKSRSRAAKKKASLQSGQEGAGDSPGSQFSKWPASPGSHSNDDFDNWSTFRPRTSANASTISGRLSPIMTEQDDLGEGDVHSMVYPPSAAKMASTLPSLSEISNPENMENLLDNLNLLSSPTSLTVSTQSSPGTMMQQTPCYSFAPPNTSLNSPSPNYQKYTYGQSSMSPLPQMPIQTLQDNKSSYGGMSQYNCAPGLLKELLTSDSPPHNDIMTPVDPGVAQPNSRVLGQNVMMGPNSVMSTYGSQASHNKMMNPSSHTHPGHAQQTSAVNGRPLPHTVSTMPHTSGMNRLTQVKTPVQVPLPHPMQMSALGGYSSVSSCNGYGRMGLLHQEKLPSDLDGMFIERLDCDMESIIRNDLMDGDTLDFNFDNVLPNQSFPHSVKTTTHSWVSG

Experiments:
[1] = tested on: PGC-1; experiment: STZ-diabetic mouse, liver PGC-1 (Northern); format: in vivo; details: STZ-diabetic mice, after 10 days
Protocol: For the feeding experiments, male mice were either allowed free access to food or subjected to a 24 hour fast and sacrificed at the end of 24 hours. A third group was fasted for 24 hours and then fed ad libitum for another 24 hours prior to sacrifice. For the STZ-diabetic mouse experiments, 6-8 week old male mice (n=3 per group) were injected intraperitoneally for three consecutive days with either sodium citrate solution or streptozotocin ([…] of body weight per injection). Animals were sacrificed after 10 days, at which point the mean blood glucose in the STZ-treated group rose to over 400 mg/dl. For the LIRKO mouse experiments, two-month-old female control (lox/lox) or LIRKO mice were divided into three groups (n=2 each) and subjected to the standard feeding protocol as described above.
Total RNA was prepared from cells or tissues with Trizol (Life Technologies) according to the manufacturer's instructions. Ten to twenty micrograms of total RNA was fractionated in a 1% agarose-formaldehyde gel, transferred onto nylon, and hybridized with cDNA probes labeled by random-primed labeling (Boehringer Mannheim) with [-^32P]-dCTP, using methods known in the art. […]

[2] = tested on: G6 Pase, PEPCK and PGC-1 mRNA; experiment: Insulin effect on mRNA levels and PGC-1 function in cultured liver cells; format: cell-based; details: for PGC-1 induced expression of PEPCK and glucose-6-phosphatase: cultured liver cells
Text: This example describes experiments designed to determine whether insulin acts directly to suppress PGC-1 expression or function. The levels of PGC-1 mRNA were first examined in cells treated with various combinations of insulin, forskolin, and dexamethasone.
However, PGC-1 function is negatively regulated by insulin in cultured liver cells. […] FKHR is regulated directly by Akt via phosphorylation. Stimulation by insulin results in activation of Akt, which phosphorylates FKHR, which in turn inactivates FKHR by causing it to exit the nucleus. Insulin treatment downregulates the ability of PGC-1 to induce the gluconeogenic genes PEPCK and glucose-6-phosphatase. PGC-1 induced expression of the genes was […] when a constitutively active FKHR was used, while a dominant-negative FKHR also downregulates the ability of PGC-1 to induce these genes, even in the absence of insulin.

[3] = tested on: FKHR; experiment: G6 Pase promoter-reporter, FKHR coactivation; format: cell-based; details: PGC-1 cotransfected with FKHR
[4] = tested on: FKHR; experiment: 3×IRS promoter-luciferase reporter, FKHR coactivation; format: cell-based; details: PGC-1 cotransfected with wild-type or mutant FKHR

Row | Molecule | PGC-1 in liver (Northern) [1] | G6 Pase mRNA levels [2] | PGC-1 mRNA levels [2] | PGC-1 induced expression of PEPCK and glucose-6-phosphatase [2] | coactivation on wild type G6 Pase promoter-reporter [3] | activation of 3×IRS promoter-luciferase reporter [4]
1 | CN(N=O)C(=O)N[C@H]1C(O)O[C@H](CO)[C@@H](O)[C@@H]1O (mixture of isomers) [streptozotocin] | consistently increased |  |  |  |  | 
2 | insulin |  | downregulated | do not change | downregulates |  | 
3 | B1 |  |  |  | unchanged | further increased | increased activation
